Measurements as given in patent US20030130340A1, “Novel benzothiophene derivatives” (Daiichi Pharmaceutical Co. Ltd., priority 2000, published 2003).
Structures can show the parent of a compound that is named as a salt.

Experiments:
[1] = molecular target: T1, steroid 17α-hydroxylase and/or steroid C17-20 lyase (Rattus norvegicus, UniProt P11715); assay: Measurement of steroid 17α-hydroxylase and/or steroid C17-20 lyase inhibitory activity (rat testis microsome, HPLC); assay type: biochemical; details: Enzyme source: rat testis microsome; test compound 300 nM; substrate 25 μM 17α-hydroxyprogesterone; NADPH 500 μM; 20 minutes at 37° C.
T1 construct: the testis of rats (SD, male) was homogenized and centrifuged to obtain microsome; from tissue; host or cells: rat (SD, male) testis microsomes
T1 sequence (P11715 1-507): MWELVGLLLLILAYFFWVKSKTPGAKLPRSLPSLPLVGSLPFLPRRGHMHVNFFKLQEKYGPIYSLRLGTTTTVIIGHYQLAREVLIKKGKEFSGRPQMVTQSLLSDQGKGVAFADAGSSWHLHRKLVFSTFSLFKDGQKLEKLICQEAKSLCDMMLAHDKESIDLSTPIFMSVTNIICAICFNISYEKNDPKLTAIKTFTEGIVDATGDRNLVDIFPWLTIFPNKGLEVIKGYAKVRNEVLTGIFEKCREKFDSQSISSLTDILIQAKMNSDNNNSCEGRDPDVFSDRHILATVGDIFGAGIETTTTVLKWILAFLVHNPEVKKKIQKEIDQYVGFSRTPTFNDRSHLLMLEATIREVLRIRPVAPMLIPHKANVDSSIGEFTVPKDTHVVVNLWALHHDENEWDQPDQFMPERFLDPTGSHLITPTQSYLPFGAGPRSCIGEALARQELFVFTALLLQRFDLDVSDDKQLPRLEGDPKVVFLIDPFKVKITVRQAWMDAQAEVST
Method: An experiment was carried out according to the method of T. Sergejew and R. W. Hartmann (J. Enzyme Inhibition, 8, 113(1994)). That is, the testis of rats (SD, male) was homogenized and centrifuged to obtain microsome. […] After the addition of 100 μl of microsome protein solution, the protein contentration was adjusted to 0.1 mg/ml by 50 mM phosphate buffer solution (pH 7.4), 140 μl of 125 nmol NADPH solution, and 10 μl of 6.25 nmol 17α-hydroxyprogesterone, the mixture was incubated for 20 minutes at 37° C. 50 μl of 1N hydrochloric acid and 1000 μl of ethyl acetate were sequentially added to the mixture. The mixture was shaken and centrifuged. The ethyl acetate layer was washed with 250 μl of 50 mM phosphate buffer solution (pH 7.4) and 50 μl of 1N hydrochloric acid, centrifuged, and concentrated. The concentrate was dissolved in 100 μl of acetonitrile. 10 μl of this solution was charged to high performance liquid chromatography. The amounts of the substrate and the product (androstenedione and testosterone) were measured to calculate the enzyme activity. In this experiment, a sample without the test compound was provided as a control group. Steroid 17α-hydroxylase and/or steroid C17-20-lyase inhibitory activity (%) was calculated by the following equation (1) using the amounts of the substrate and the product obtained.

| melting point | inhibition at 0.3 µM [1] [%] | Structure (SMILES) |
| --- | --- | --- |
| 188.5 to 189.5 °C | 100 | Oc1cccc(-c2ccc3c(-c4cccnc4)csc3c2)c1 [Example 17, 3-[3-(3-pyridyl)benzo[b]thiophen-6-yl]-phenol] |
| 131.5 to 133 °C | 100 | c1cncc(-c2ccc3c(-c4cccnc4)csc3c2)c1 [Example 20, 3-[6-(3-pyridyl)benzo[b]thiophen-3-yl]pyridine] |
| 205.5 to 207 °C (dec.) | 9 | COc1ccc2c(-c3ccccn3)csc2c1.Cl [Example 3, 2-[6-methoxybenzo[b]thiophen-3-yl]pyridine hydrochloride] |
| 246 to 250 °C | 3 | Oc1ccc2c(-c3ccncc3)csc2c1 [Example 6, 3-(4-pyridyl)benzo[b]thiophen-6-ol] |
|  | 56 | Cc1ccc2c(-c3cccnc3)csc2c1 [Example 27, 3-(6-methylbenzo[b]thiophen-3-yl)pyridine hydrochloride] |
|  | 46 | CC(=O)c1ccc(-c2ccc3c(-c4cccnc4)csc3c2)cc1 [Example 44, 1-{4-[3-(3-pyridyl)benzo[b]thiophen-6-yl]phenyl}-1-ethanone] |
|  | 60 | COc1ccc(-c2ccc3c(-c4ccncc4)csc3c2)cc1 [Example 7, 4-[6-(4-methoxyphenyl)benzo[b]thiophen-3-yl]pyridine] |
|  | 100 | c1cncc(-c2csc3cc(-c4ccco4)ccc23)c1 [Example 34, 3-[6-(2-furyl)benzo[b]thiophen-3-yl]pyridine hydrochloride] |
|  | 91 | Fc1cccc(-c2ccc3c(-c4cccnc4)csc3c2)c1 [Example 14, 3-[6-(3-fluorophenyl)benzo[b]thiophen-3-yl]pyridine] |
|  | 45 | CC(=O)c1ccccc1-c1ccc2c(-c3cccnc3)csc2c1 [Example 38, 1-{2-[3-(3-pyridyl)benzo[b]thiophen-6-yl]phenyl}-1-ethanone hydrochloride] |
|  | 67 | CC(C)Nc1cccc(-c2ccc3c(-c4cccnc4)csc3c2)c1 [Example 49, isopropyl {3-[3-(3-pyridyl)benzo[b]thiophen-6-yl]phenyl}amine] |
|  | 94 | c1cncc(-c2csc3cc(N4CCOCC4)ccc23)c1 [Example 55, 4-[3-(3-pyridyl)benzo[b]thiophen-6-yl]morpholine dihydrochloride] |
|  | 95 | CCCOc1ccc2c(-c3cccnc3)csc2c1 [Example 41, 3-(6-propyloxybenzo[b]thiophen-3-yl)pyridine hydrochloride] |
|  | 42 | Brc1ccc2c(-c3cccnc3)csc2c1 [Example 28, 3-(6-bromobenzo[b]thiophen-3-yl)pyridine hydrochloride] |
